Reference: US20160263081A1, “ANTIPARASITIC AGENT” (NAI INC., priority 2013, published 2016)
Several values for one entry are separate records, joined by “and”; a condition that tells them apart may be missing. Equal entries are not always repeated. Where two headings read alike, the source gives them in different places.

What was measured:
T. cruzi amastigote [1] = conditions: cited from earlier work
D. immitis microfilariae = type: cell-based, Dirofilaria immitis
L. donovani promastigote [2] = conditions: cited from earlier work
L. major promastigote [3] = conditions: cited from earlier work
[4] = biological target: T1, A. suum respiratory chain complex II (Ascaris suum, UniProt O44074+P92506+P92507); test: Lineweaver-Burk inhibition pattern, A. suum complex II; type: biochemical; conditions: for Ki: A. suum SQR activity, for quinone (decylubiquinone)
T1 construct: measured using A. suum imago complex II; from tissue; host or cells: adult (imago) Ascaris suum
T1 sequence (Q33862 19-645 partner): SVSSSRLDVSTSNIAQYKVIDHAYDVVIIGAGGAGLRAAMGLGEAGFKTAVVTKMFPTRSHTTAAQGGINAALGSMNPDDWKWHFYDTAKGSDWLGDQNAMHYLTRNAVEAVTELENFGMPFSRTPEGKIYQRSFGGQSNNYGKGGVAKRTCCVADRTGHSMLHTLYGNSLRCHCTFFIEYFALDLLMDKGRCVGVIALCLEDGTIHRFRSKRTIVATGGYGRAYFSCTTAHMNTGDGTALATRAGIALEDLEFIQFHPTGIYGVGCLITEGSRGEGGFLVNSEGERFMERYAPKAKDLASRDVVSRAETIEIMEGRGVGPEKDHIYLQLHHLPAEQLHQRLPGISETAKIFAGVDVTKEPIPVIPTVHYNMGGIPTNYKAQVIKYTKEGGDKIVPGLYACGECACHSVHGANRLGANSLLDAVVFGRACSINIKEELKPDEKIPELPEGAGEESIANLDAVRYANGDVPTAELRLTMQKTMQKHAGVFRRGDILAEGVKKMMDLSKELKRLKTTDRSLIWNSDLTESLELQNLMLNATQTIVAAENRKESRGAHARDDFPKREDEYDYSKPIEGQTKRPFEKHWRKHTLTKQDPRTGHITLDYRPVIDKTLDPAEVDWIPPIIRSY
T1 sequence (O44074 22-282): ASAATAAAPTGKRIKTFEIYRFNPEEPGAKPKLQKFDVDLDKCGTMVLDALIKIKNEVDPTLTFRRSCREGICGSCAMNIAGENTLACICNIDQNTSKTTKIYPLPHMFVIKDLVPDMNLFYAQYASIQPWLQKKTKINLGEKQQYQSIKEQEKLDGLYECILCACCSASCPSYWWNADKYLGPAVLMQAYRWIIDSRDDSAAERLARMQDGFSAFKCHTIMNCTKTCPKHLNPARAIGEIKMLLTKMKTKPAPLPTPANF
T1 sequence (P92506 32-188): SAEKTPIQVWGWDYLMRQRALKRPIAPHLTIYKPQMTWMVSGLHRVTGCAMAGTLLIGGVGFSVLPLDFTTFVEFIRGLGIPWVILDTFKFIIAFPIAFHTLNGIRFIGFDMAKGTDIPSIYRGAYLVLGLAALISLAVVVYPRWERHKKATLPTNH
T1 sequence (P92507 26-156): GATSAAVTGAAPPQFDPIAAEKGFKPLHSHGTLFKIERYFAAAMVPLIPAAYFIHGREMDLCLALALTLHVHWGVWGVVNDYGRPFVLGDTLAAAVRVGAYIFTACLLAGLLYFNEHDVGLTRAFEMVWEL
Method: FIG. 1 is a graph which represents the inhibition pattern of siccanin against A. suum respiratory chain complex II.
(§1) In order to estimate the inhibitory mechanism of siccanin against complex II, the inhibitory pattern was determined by Lineweaver-Burk plot using succinate and quinone as the substrates. As samples for measurement, nematode complex II from A. suum and complex II from L. tarentolae, which is an easy-to-handle trypanosomatid, were used. […] The SDH activity is catalyzed by only subunits Fp and Ip of complex II and the quinone-binding domain is not essential for the reaction.

T. cruzi amastigote [5] = test: Count of T. cruzi amastigotes infecting mouse cells; type: cell-based, Trypanosoma cruzi
Text: (§2) Siccanin inhibits trypanosomatid and plasmodia complex II with IC50 values on the nM order. Based on this fact, the present inventors further measured the impact of siccanin on the proliferation of parasites (Table 3). The species of the organisms used in the present study were: nonpathogenic leishmanial protozoan L. tarentolae promastigote (insect form), cutaneous leishmaniasis pathogen L. major promastigote (insect form), visceral leishmaniasis pathogen L. donovani promastigote (insect form), related species of African sleeping sickness pathogen T. b. brucei bloodstream form, Chagas disease pathogen T. cruzi amastigote (cell form), and plasmodia P. falciparum erythrocytic stage (Table 3). T. b. brucei bloodstream form and T. cruzi amastigote correspond to the stages found in mammalian hosts and can be used as target forms in drug treatments for African trypanosomiasis and Chagas disease.
(§3) In the presence of 0.05 to 50 μM siccanin, the proliferation of L. tarentolae promastigote, L. donovani promastigote, L. major promastigote, and T. brucei bloodstream form was measured by Alamar Blue method. […] The growth inhibitory effect of siccanin on T. cruzi was evaluated by counting the T. cruzi amastigote population that infected mouse cells. As compared with DMSO control, the number of the protozoa decreased by 50% in the presence of 10 μM siccanin. […]

T. cruzi complex II = type: biochemical, Trypanosoma cruzi
A. simplex complex II = A. simplex complex II (Anisakis simplex, UniProt A0A0M3JRB2+A0A0M3KB13+A0A3P6RGD8); test: biochemical
Sequence of A. simplex complex II (A0A0M3JRB2 24-279): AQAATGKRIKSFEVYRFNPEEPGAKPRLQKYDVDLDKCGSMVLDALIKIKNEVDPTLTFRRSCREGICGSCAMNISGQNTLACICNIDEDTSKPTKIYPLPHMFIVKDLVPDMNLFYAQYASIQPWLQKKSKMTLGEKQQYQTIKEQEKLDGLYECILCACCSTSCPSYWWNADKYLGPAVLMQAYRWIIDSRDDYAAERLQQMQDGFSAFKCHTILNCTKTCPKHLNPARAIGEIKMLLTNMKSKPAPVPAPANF
Sequence of A. simplex complex II (A0A3P6RGD8 1-99): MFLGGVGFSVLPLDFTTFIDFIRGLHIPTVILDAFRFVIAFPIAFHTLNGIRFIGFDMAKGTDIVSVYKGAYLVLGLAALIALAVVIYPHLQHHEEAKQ
Sequence of A. simplex complex II (A0A0M3KB13 31-157): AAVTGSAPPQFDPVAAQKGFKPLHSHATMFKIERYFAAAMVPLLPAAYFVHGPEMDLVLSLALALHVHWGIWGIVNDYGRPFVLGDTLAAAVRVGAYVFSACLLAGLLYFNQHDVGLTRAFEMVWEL
Sequence of A. simplex complex II (A0A0M3KCD2 1-354 partner): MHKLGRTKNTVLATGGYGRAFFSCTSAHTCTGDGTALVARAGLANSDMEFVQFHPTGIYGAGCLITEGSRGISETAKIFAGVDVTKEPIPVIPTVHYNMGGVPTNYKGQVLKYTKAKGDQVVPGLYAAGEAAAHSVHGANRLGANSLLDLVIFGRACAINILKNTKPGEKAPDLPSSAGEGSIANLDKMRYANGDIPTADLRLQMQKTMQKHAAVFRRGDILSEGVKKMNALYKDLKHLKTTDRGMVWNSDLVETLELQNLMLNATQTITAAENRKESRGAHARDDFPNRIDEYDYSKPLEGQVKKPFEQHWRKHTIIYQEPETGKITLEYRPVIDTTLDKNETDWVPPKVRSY

[6] = biological target: T2, A. suum complex II SDH activity (Ascaris suum, UniProt O44074+P92506+P92507); test: Succinate dehydrogenase (SDH) reaction with PMS and MTT, A. suum complex II; type: biochemical; conditions: 50 μM siccanin
T2 construct: measured using A. suum imago complex II; from tissue; host or cells: adult (imago) Ascaris suum
Method: as §1

[7] = test system: L. tarentolae promastigote; test: Proliferation by Alamar Blue method, L. tarentolae promastigote; type: cell-based; conditions: Leishmania tarentolae, read-out: Celluler IC50
Text: as §2, §3

[8] = test system: T. mentagrophytes respiratory chain complex II; conditions: cited from earlier work
L. major promastigote [9] = test: Proliferation by Alamar Blue method, L. major promastigote; type: cell-based; conditions: Leishmania major, read-out: Celluler IC50
Text: as §2, §3

[10] = test system: L. tarentolae complex II SDH activity; test: Succinate dehydrogenase (SDH) reaction with PMS and MTT, L. tarentolae complex II; type: biochemical, Leishmania tarentolae; conditions: 50 μM siccanin
Method: as §1

H. contortus complex II = type: biochemical, Haemonchus contortus
P. falciparum complex II = type: biochemical, Plasmodium falciparum
T. mentagrophytes = conditions: glycol salicylate ointment containing 1% siccanin applied 3-8 days after infection, albino guinea pigs, N=20; cited from earlier work
L. tarentolae complex II = type: biochemical, Leishmania tarentolae
T. b. brucei complex II = type: biochemical, Trypanosoma brucei brucei
pig complex II [11] = biological target: T3, pig complex II (Sus scrofa, UniProt A5GZW8+D0VWV4+Q007T0); conditions: Non-Patent Document 21; cited from earlier work
T3 sequence (Q0QF01 43-664 partner): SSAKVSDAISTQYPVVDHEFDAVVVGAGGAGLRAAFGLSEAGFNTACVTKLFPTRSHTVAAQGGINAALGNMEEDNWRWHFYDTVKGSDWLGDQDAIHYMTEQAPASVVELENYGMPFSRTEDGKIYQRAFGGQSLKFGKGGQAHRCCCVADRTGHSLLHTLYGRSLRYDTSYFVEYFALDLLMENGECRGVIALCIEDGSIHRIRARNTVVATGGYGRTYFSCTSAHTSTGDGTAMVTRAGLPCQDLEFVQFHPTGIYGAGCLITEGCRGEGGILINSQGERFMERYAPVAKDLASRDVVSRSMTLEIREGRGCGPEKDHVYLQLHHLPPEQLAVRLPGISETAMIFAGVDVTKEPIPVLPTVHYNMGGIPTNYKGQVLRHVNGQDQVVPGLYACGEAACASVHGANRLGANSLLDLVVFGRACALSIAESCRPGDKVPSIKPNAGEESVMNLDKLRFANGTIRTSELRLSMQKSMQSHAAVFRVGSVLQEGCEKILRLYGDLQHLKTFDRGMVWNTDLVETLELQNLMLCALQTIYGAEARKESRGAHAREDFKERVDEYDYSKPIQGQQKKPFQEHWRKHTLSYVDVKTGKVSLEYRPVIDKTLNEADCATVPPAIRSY
T3 sequence (Q007T0 29-280): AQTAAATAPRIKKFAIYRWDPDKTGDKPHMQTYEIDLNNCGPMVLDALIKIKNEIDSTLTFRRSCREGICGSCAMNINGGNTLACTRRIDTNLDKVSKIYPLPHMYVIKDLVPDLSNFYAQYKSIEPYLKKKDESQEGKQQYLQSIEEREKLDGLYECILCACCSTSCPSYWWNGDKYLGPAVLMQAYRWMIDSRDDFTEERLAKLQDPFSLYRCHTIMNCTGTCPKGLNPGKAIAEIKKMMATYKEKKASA
T3 sequence (D0VWV4 30-169): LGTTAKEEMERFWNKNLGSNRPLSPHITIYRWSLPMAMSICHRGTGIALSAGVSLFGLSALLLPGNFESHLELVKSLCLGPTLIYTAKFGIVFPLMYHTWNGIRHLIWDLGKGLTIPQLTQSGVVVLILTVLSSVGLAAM
T3 sequence (A5GZW8 57-159 limits assumed): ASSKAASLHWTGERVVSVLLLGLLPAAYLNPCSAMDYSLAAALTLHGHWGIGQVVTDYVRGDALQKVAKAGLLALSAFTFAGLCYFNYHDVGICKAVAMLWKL

[12] = biological target: Escherichia coli complex II (Escherichia coli, UniProt P07014+P0AC44+P69054); conditions: cited from earlier work
Sequence of Escherichia coli complex II (P0AC41 whole entry partner): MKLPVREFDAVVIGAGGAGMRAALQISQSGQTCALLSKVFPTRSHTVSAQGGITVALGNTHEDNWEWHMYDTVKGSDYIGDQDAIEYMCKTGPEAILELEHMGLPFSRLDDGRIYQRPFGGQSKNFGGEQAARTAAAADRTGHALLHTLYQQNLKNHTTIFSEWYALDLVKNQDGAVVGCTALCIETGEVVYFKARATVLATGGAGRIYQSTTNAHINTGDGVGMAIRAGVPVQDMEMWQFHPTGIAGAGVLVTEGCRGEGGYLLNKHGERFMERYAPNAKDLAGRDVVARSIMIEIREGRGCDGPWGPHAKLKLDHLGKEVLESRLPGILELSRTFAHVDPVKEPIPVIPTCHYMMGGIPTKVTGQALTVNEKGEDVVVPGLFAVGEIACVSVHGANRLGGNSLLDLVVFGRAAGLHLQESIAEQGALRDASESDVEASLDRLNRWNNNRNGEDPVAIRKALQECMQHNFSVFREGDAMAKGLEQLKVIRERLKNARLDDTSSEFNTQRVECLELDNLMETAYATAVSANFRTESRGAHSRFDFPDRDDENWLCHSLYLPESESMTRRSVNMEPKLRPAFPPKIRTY
Sequence of Escherichia coli complex II (P07014 whole entry): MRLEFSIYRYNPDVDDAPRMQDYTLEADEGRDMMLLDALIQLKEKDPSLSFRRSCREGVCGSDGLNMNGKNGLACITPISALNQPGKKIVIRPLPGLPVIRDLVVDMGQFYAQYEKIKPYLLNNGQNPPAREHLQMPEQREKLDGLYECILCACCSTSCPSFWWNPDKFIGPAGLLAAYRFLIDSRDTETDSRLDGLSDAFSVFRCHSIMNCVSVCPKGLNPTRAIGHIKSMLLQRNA
Sequence of Escherichia coli complex II (P69054 whole entry): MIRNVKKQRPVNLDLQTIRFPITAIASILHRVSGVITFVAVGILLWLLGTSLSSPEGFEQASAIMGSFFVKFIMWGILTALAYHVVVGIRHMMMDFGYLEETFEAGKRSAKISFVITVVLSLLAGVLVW
Sequence of Escherichia coli complex II (P0AC44 whole entry): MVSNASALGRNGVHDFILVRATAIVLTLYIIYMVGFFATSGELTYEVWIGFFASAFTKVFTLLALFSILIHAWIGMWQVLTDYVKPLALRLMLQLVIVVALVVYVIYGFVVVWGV

[13] = test system: Pseudomonas aeruginosa complex II; conditions: cited from earlier work
[14] = biological target: T1, A. suum respiratory chain complex II; test: biochemical
[15] = test system: Trychophyton spp., Epidermophyton floccosum, and Microsporium gypseum; conditions: cited from earlier work
[16] = test system: T. mentagrophytes mitochondria; conditions: cited from earlier work
[17] = test system: T. b. brucei bloodstream form; test: Proliferation by Alamar Blue method, T. b. brucei bloodstream form; type: cell-based; conditions: Trypanosoma brucei, read-out: Celluler IC50
Text: as §2, §3

rat complex II = rat complex II (Rattus norvegicus, UniProt P21913+Q641Z9+Q6PCT8); conditions: cited from earlier work
[18] = test system: P. falciparum erythrocytic stage; test: P. falciparum proliferation by LDH assay; type: cell-based, Plasmodium falciparum; conditions: read-out: Celluler IC50
Text: as §2, §3

D. immitis complex II = type: biochemical, Dirofilaria immitis
[19] = biological target: L. tarentolae respiratory chain complex II; test: Lineweaver-Burk inhibition pattern, L. tarentolae complex II; type: biochemical, Leishmania tarentolae; conditions: for Ki: L. tarentolae SQR activity, for quinone (ubiquinone 1)
Method: FIG. 2 is a graph which represents the inhibition pattern of siccanin against L. tarentolae respiratory chain complex II.
as §1

L. donovani promastigote [20] = test: Proliferation by Alamar Blue method, L. donovani promastigote; type: cell-based; conditions: Leishmania donovani
Text: as §2, §3

pig complex II [21] = biological target: T3, pig complex II; type: biochemical
Ascaris suum complex II = Ascaris suum complex II (Ascaris suum, UniProt O44074+P92506+P92507); conditions: A. suum complex II; cited from earlier work
[22] = complex II alone, read-out: Ki1
[23] = complex of complex II and ubiquinone, read-out: Ki2
[24] = A. suum complex II, Lineweaver-Burk plot

## O=C(Cn1ccnc1[N+](=O)[O-])NCc1ccccc1 [benznidazole]
T. cruzi amastigote [1]
  IC50: ~22 µM

## ivermectin [reference compound]
D. immitis microfilariae; 5 μM, 0 hr
  Motility (%): 100%
D. immitis microfilariae; 5 μM, 24 hr
  Motility (%): 75%
D. immitis microfilariae; 5 μM, 48 hr
  Motility (%): 50%
D. immitis microfilariae; 50 μM, 0 hr
  Motility (%): 100%
D. immitis microfilariae; 50 μM, 24 hr
  Motility (%): 50%
D. immitis microfilariae; 50 μM, 48 hr
  Motility (%): 50%

## C[C@@H]1[C@H](O)[C@@H](C)/C=C/C=C/C=C/C=C/C=C/C=C/C=C/[C@H](O[C@@H]2O[C@H](C)[C@@H](O)[C@H](N)[C@@H]2O)C[C@@H]2O[C@](O)(C[C@@H](O)C[C@@H](O)[C@H](O)CC[C@@H](O)C[C@@H](O)CC(=O)O[C@H]1C)C[C@H](O)[C@H]2C(=O)O [Amphotericin B]
L. donovani promastigote [2]
  IC50: ~0.012 µM
L. major promastigote [3]
  IC50: ~0.043 µM

## Cc1cc(O)c2c(c1)O[C@@]1(C)CC[C@H]3C(C)(C)CCC[C@]34CO[C@@H]2[C@H]41 [siccanin]
[4]; [22]
  Ki: 0.003 µM and 0.0052 µM
[4]; [23]
  Ki: 0.0087 µM and 0.0099 µM
[4]; [24]
  inhibitory pattern for quinone: mixed inhibition
  inhibitory pattern for succinate: non-competitive inhibition
T. cruzi amastigote [5]; 10 μM siccanin
  decrease in the number of the protozoa compared with DMSO control: 50%
T. cruzi amastigote [5]; Trypanosoma cruzi, T. cruzi amastigote in mouse cells, read-out: Celluler IC50
  IC50: 10 µM
T. cruzi complex II
  Selectivity: 718 fold
T. cruzi complex II; read-out: SQR IC50
  IC50: 1.2 µM
A. simplex complex II
  IC50: 0.0112 µM
  Selectivity: 76875 fold
[6]
  inhibition of SDH activity: no inhibitory effects
[7]
  IC50: 4.4 µM
[8]
  IC50: 0.087 µM
L. major promastigote [9]
  IC50: 13 µM
[10]
  inhibition of SDH activity: no inhibitory effects
H. contortus complex II
  Selectivity: 47308 fold
H. contortus complex II; read-out: SQR IC50
  IC50: 0.0182 µM
P. falciparum complex II
  IC50: 0.098 µM
  Selectivity: 8675
T. mentagrophytes
  subjects whose skin was completely cured: 85-100%
L. tarentolae complex II
  Selectivity: 4532 fold
L. tarentolae complex II; read-out: SQR IC50
  IC50: 0.19 µM
T. b. brucei complex II
  Selectivity: 3189 fold
T. b. brucei complex II; read-out: SQR IC50
  IC50: 0.37 µM
Pig complex II [11]
  IC50: 861 µM
[12]
  IC50: 268 µM
[13]; Pseudomonas aeruginosa complex II
  IC50: 0.87 µM
[13]; membrane fraction of Pseudomonas aeruginosa
  inhibition mode against quinone: mixed inhibition
[14]
  IC50: 0.0057 µM
  Selectivity: 180,000 fold
  selectivity relative to the selectivity of flutolanil: about 20 fold
[15]
  MIC: 0.6 to 6.3 mg/L
[16]
  inhibition of NADH- or ascorbate-dependant oxygen consumption: does not inhibit
[17]
  IC50: 8.3 µM
Rat complex II
  IC50: 9.3 µM
[18]; Plasmodium falciparum
  IC50: 15.5 µM
[18]
  IC50: 16 µM
D. immitis complex II
  Selectivity: 62391 fold
D. immitis complex II; read-out: SQR IC50
  IC50: 0.0138 µM
D. immitis microfilariae; 5 μM, 0 hr
  Motility (%): 100%
D. immitis microfilariae; 5 μM, 24 hr
  Motility (%): 75%
D. immitis microfilariae; 5 μM, 48 hr
  Motility (%): 50%
D. immitis microfilariae; 50 μM, 0 hr
  Motility (%): 25%
D. immitis microfilariae; 50 μM, 24 hr
  Motility (%): 0%
D. immitis microfilariae; 50 μM, 48 hr
  Motility (%): 0%
[19]; [22]
  Ki: 0.039 µM
[19]; [23]
  Ki: 0.102 µM
[19]; L. tarentolae complex II, Lineweaver-Burk plot
  inhibitory pattern for quinone: mixed inhibition
L. donovani promastigote [20]; read-out: Celluler IC50
  IC50: 0.7 µM
L. donovani promastigote [20]; read-out: IC50
  IC50: 0.7 µM
Pig complex II [21]
  Selectivity: 1

## CCCCCCCCCCCCCCCCOP(=O)([O-])OCC[N+](C)(C)C [miltefosine]
L. donovani promastigote [2]
  IC50: ~0.45 µM
L. major promastigote [3]
  IC50: ~13.1 µM

## CC(C)Oc1cccc(NC(=O)c2ccccc2C(F)(F)F)c1 [flutolanil]
Ascaris suum complex II
  selectivity over pig complex II: 800 fold

## CC1CS(=O)(=O)CCN1/N=C/c1ccc([N+](=O)[O-])o1 (stereo not shown) [nifurtimox]
T. cruzi amastigote [1]
  IC50: ~3.5 µM
